Laboratory results published in publication PMC7088350 (Chemistry of Heterocyclic Compounds, 2014).
In brackets after ≈: the same amount, converted by molar mass. Several values for one entry are separate records, joined by “and”; a condition that tells them apart may be missing. Equal entries are not always repeated. Where two headings read alike, the source gives them in different places.

Tests used:
[1] = tested on: Human Erythroleukemia Cells (HEL); experiment: Cytotoxicity; format: cell-based; details: morphological changes detected microscopically
[2] = tested on: Simplex herpes 1 KOS virus; experiment: Antiviral activity; format: cell-based, Simplex herpes 1 virus; details: read-out: MIC50 Simplex herpes 1 KOS virus
[3] = tested on: Simplex herpes 1 TK-KOS ACVr virus; experiment: Antiviral activity; format: cell-based, Simplex herpes 1 virus; details: read-out: MIC50 Simplex herpes 1 TK-KOS ACVr virus
Simplex herpes 2 G virus = experiment: Antiviral activity; format: cell-based, Simplex herpes 2 virus; details: read-out: MIC50 Simplex herpes 2 G virus
[4] = tested on: Vesicular stomatitis virus; experiment: microbe, parasite or virus in culture; format: cell-based; details: read-out: MIC50 Vesicular stomatitis virus
Sindbis virus = experiment: Antiviral activity; format: cell-based; details: read-out: MIC50 Sindbis virus
Parainfluenza 3 virus [5] = experiment: Antiviral activity; format: cell-based; details: read-out: MIC50 Parainfluenza 3 virus
Influenza A H1N1 virus [6] = experiment: Antiviral activity; format: cell-based; details: for MIC50: Influenza A virus
[7] = tested on: Cervical Cancer Cells (HeLa); experiment: Cytotoxicity in HeLa cells; format: cell-based
Influenza B virus [8] = experiment: Antiviral activity; format: cell-based; details: for MIC50: Influenza B virus
[9] = tested on: Cocker Spaniel Hepatocytes (MDCK); experiment: Cytotoxicity in MDCK cells; format: cell-based
[10] = Cytotoxicity in MDCK cells; format: cell-based, Cocker Spaniel; details: dog
Reovirus 1 = experiment: Antiviral activity; format: cell-based; details: Mammalian orthoreovirus 1, read-out: MIC50 Reovirus 1
[11] = tested on: Vesicular stomatitis virus; experiment: microbe, parasite or virus in culture; format: cell-based; details: read-out: MIC50 Vesicular stomatitis virus; remark: listed apart in the source
[12] = tested on: Respiratory syncytial virus; experiment: Antiviral activity; format: cell-based; details: human respiratory syncytial virus, read-out: MIC50 Respiratory syncytial virus
Influenza A H3N2 virus [13] = experiment: Antiviral activity; format: cell-based; details: for MIC50: Influenza A virus
Feline coronavirus = experiment: Antiviral activity; format: cell-based; details: for MIC50 Feline coronavirus: CRFK cells; for MIC50: Alphacoronavirus 1, read-out: MIC50 Feline coronavirus
Feline herpes virus = experiment: Antiviral activity; format: cell-based; details: for MIC50: read-out: MIC50 Feline herpes virus
Influenza A H3N2 virus [14] = details: literature; cited from earlier work
[15] = tested on: Respiratory syncytial virus; details: literature data; cited from earlier work
Influenza B virus [16] = details: literature; cited from earlier work
Parainfluenza 3 virus [17] = details: literature data; cited from earlier work
[18] = tested on: Feline Kidney Cells (CRFK); experiment: Cytotoxicity in CRFK cells; format: cell-based
Influenza A H1N1 virus [19] = details: previously reported; cited from earlier work
[20] = tested on: African Green Monkey Epithelial Kidney Cells (VERO); experiment: Cytotoxicity in VERO cells; format: cell-based
[21] = H1N1, read-out: MIC50 Influenza A H1N1 virus CA
[22] = H1N1, read-out: MIC50 Influenza A H1N1 virus VA
[23] = read-out: MIC50 Influenza B virus CA
[24] = read-out: MIC50 Influenza B virus VA
[25] = H3N2, read-out: MIC50 Influenza A H3N2 virus CA
[26] = H3N2, read-out: MIC50 Influenza A H3N2 virus VA
[27] = MDCK cells, colorimetric assessment
[28] = MDCK cells, visual assessment (microscopy)

Compound | MCC (minimum cytotoxic concentration) [1] | MIC50 [2] | MIC50 [3] | MIC50 (Simplex herpes 2 G virus) | MIC50 [4] | MIC50 (Sindbis virus) | MIC50 (Parainfluenza 3 virus [5]) | MIC50 (Influenza A H1N1 virus [6]; [21]) | MIC50 (Influenza A H1N1 virus [6]; [22]) | MCC [7] | MIC50 (Influenza B virus [8]; [23]) | MIC50 (Influenza B virus [8]; [24]) | MCC [9] | CC50 [10] | MIC50 (Reovirus 1) | MIC50 [11] | MIC50 [12] | MIC50 (Influenza A H3N2 virus [13]; [25]) | MIC50 (Influenza A H3N2 virus [13]; [26]) | further results
O=c1[nH]c(=O)n([C@H]2C[C@H](O)[C@@H](CO)O2)cc1/C=C/Br [Brivudine] | >250 µM | 0.04 µM (≈ 0.0133 µg/mL) | 2 µM (≈ 0.666 µg/mL) | 183 µM (≈ 61 µg/mL) | > 250 µM | – | – | – | – | – | – | – | – | – | – | – | – | – | – | –
NC(=O)c1ncn([C@@H]2O[C@H](CO)[C@@H](O)[C@H]2O)n1 [Ribavirin] | – | – | – | – | – | > 250 µM | 50 µM (≈ 12.2 µg/mL) | 6.4 µM (≈ 1.56 µg/mL) | 9 µM (≈ 2.2 µg/mL) | >250 µM | 5.9 µM (≈ 1.44 µg/mL) | 20 µM (≈ 4.88 µg/mL) | >100 µM | > 100 µM | > 250 µM | 10 µM (≈ 2.44 µg/mL) | 10 µM (≈ 2.44 µg/mL) | 10.7 µM (≈ 2.61 µg/mL) | 9 µM (≈ 2.2 µg/mL) | –
Nc1ncnc2c1ncn2C[C@H](O)CO [(S)-DHPA, 9-((2S)-2,3-Dihydroxypropyl)adenine] | – | – | – | – | – | > 250 µM | > 250 µM | – | – | >250 µM | – | – | – | – | > 250 µM | > 250 µM | > 250 µM | – | – | –
Nc1nc2c(ncn2COCCO)c(=O)[nH]1 [Acyclovir] | >250 µM | 0.2 µM (≈ 0.045 µg/mL) | 2 µM (≈ 0.45 µg/mL) | 0.08 µM (≈ 0.018 µg/mL) | 250 µM (≈ 56.3 µg/mL) | – | – | – | – | – | – | – | – | – | – | – | – | – | – | –
N[C@H]1C(C(=O)O)=CC=C[C@@H]1O (relative stereo) [HHA, (2S,3S)-trans-3-Hydroxy-2,3-dihydroanthranilic acid] | – | – | – | – | – | – | – | – | – | – | – | – | – | – | – | – | – | – | – | MIC50 Feline coronavirus (Feline coronavirus): 13.0 µM (≈ 2.02 µg/mL)
CCOC(=O)c1c([C@@H]2C[C@H]2c2ccccc2)n(C)c2ccc(O)cc12 (relative stereo) [Compound 3, ethyl 5-hydroxy-1-methyl-2-(trans-2-phenylcyclopropyl)-1H-indole-3-carboxylate] | > 300 μM and > 100 μg/ml | > 300 µM and > 100 µg/mL | > 300 µM and > 100 µg/mL | > 300 µM and > 100 µg/mL | > 300 µM and > 100 µg/mL | > 300 µM and > 100 µg/mL | > 300 µM and > 100 µg/mL | > 12 µM and > 4 µg/mL | > 12 µM and > 4 µg/mL | > 300 μM and > 100 μg/ml | > 12 µM and > 4 µg/mL | > 12 µM and > 4 µg/mL | – | 59.6 µM and 20 µg/mL | > 300 µM and > 100 µg/mL | > 300 µM and > 100 µg/mL | > 300 µM and > 100 µg/mL | > 12 µM and > 4 µg/mL | > 12 µM and > 4 µg/mL | MIC50 (Feline coronavirus): > 300 µM and > 100 µg/mL; MIC50 (Feline herpes virus): > 300 µM and > 100 µg/mL
3'-(1-Carboxy-1-phosphonoxyethoxy)uridinediphosphate-N-acetylglucosamine [UDA] | – | – | – | – | – | – | – | – | – | – | – | – | – | – | – | – | – | – | – | MIC50 Feline coronavirus (Feline coronavirus): 1.1 µM; MIC50 Feline herpes virus (Feline herpes virus; CRFK cells): 0.8 µM
Nc1ccn(C[C@@H](CO)OCP(=O)(O)O)c(=O)n1 [Cidofovir] | >250 µM | 6 µM (≈ 1.68 µg/mL) | 6 µM (≈ 1.68 µg/mL) | 2 µM (≈ 0.558 µg/mL) | > 250 µM | – | – | – | – | – | – | – | – | – | – | – | – | – | – | –
CC(=O)N[C@H]1[C@H]([C@H](O)[C@H](O)CO)OC(C(=O)O)=C[C@@H]1N=C(N)N [Zanamivir] | – | – | – | – | – | – | – | 1.2 µM (≈ 0.399 µg/mL) | 0.8 µM (≈ 0.266 µg/mL) | – | 0.3 µM (≈ 0.0997 µg/mL) | – | >100 µM | > 100 µM | – | – | – | 2 µM (≈ 0.665 µg/mL) | 4 µM (≈ 1.33 µg/mL) | –
CCOC(=O)c1c(CSc2ccccc2)n(C)c2cc(Br)c(O)c(CN(C)C)c12.Cl.O [Umifenovir, Ethyl 6-bromo-4-(dimethylamino)methyl-5-hydroxy-1-methyl-2-(phenylsulfanyl)methyl-1 H -indole-3-carboxylate hydrochloride monohydrate] | 188 μM and 100 μg/ml | > 37 µM and > 20 µg/mL | > 37 µM and > 20 µg/mL | > 37 µM and > 20 µg/mL | > 37 µM and > 20 µg/mL | > 190 µM and > 100 µg/mL | > 190 µM and > 100 µg/mL | > 7.5 µM and > 4 µg/mL | > 7.5 µM and > 4 µg/mL | 37 μM and 20 μg/ml | > 7.5 µM and > 4 µg/mL | > 7.5 µM and > 4 µg/mL | 19.6 μM and 10.4 μg/ml | 37 µM and 20 µg/mL | > 190 µM and > 100 µg/mL | > 7.5 µM and > 4 µg/mL | > 7.5 µM and > 4 µg/mL | > 7.5 µM and > 4 µg/mL | > 7.5 µM and > 4 µg/mL | MIC50 (Feline coronavirus): > 7.5 µM and > 4 µg/mL; MCC ([9]; listed as umifenovir): 10.4 µg/mL; MIC50 H3N2 influenza A virus replication (Influenza A H3N2 virus [14]): 6.7 µg/mL; MIC50 respiratory syncytial virus [15]: 8.7 µg/mL; MIC50 influenza B virus replication (Influenza B virus [16]): 7.1 µg/mL; MIC50 parainfluenza 3 virus (Parainfluenza 3 virus [17]): 4.9 µg/mL; MCC [18]: 19.0 μM and 10.1 μg/ml; MCC ([18]; listed as umifenovir): 10.1 µg/mL; MIC50 (Feline herpes virus): > 7.5 µM and > 4 µg/mL; MIC50 influenza A H1N1 virus replication (Influenza A H1N1 virus [19]): 2.7 to 4.0 µg/mL; MCs [20]: > 190 μM and > 100 μg/ml
NC12CC3CC(CC(C3)C1)C2 [Amantadine] | – | – | – | – | – | – | – | 83.9 µM (≈ 12.7 µg/mL) | 89 µM (≈ 13.5 µg/mL) | – | > 200 µM | > 200 µM | >200 µM | > 200 µM | – | – | – | 1.6 µM (≈ 0.242 µg/mL) | 4 µM (≈ 0.605 µg/mL) | –
CC(N)C12CC3CC(CC(C3)C1)C2 (centres unmarked) [Remantadine] | – | – | – | – | – | – | – | – | – | – | – | – | >200 µM | – | – | – | – | – | – | MIC50 Influenza A H1N1 virus CA (Influenza A H1N1 virus [6]; [27]): 10.3 µM (≈ 1.85 µg/mL); MIC50 Influenza A H1N1 virus VA (Influenza A H1N1 virus [6]; [28]): 20 µM (≈ 3.59 µg/mL); MIC50 Influenza B virus CA (Influenza B virus [8]; [27]): >200 µM; MIC50 Influenza B virus VA (Influenza B virus [8]; [28]): >200 µM; MIC50 Influenza A H3N2 virus CA (Influenza A H3N2 virus [13]; [27]): 0.3 µM (≈ 0.0538 µg/mL); MIC50 Influenza A H3N2 virus VA (Influenza A H3N2 virus [13]; [28]): 0.3 µM (≈ 0.0538 µg/mL)
Nc1nc(O)c2ncn(COC(CO)CO)c2n1 [Ganciclovir] | >100 µM | 0.08 µM (≈ 0.0204 µg/mL) | 0.2 µM (≈ 0.051 µg/mL) | 0.03 µM (≈ 0.00766 µg/mL) | > 100 µM | – | – | – | – | – | – | – | – | – | – | – | – | – | – | MIC50 (Feline coronavirus): > 100 µM
